Molecules are shown by their SMILES. The source made the active and inactive calls.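 Rule for the calls: active = compounds whose fitted half-maximal concentration for changing the GFP signal is at or below a set limit; inactive = the rest.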

The nature of this test: TOR pathway RPL19A-GFP modulators, concentration series – cell-based, S. cerevisiae, flow cytometry, MLPCN hits, dose response (AID 2740).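 Note: background is signal of the same compound in parental non-GFP s288c yeast.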 Particulars: S. cerevisiae RPL19A-GFP strain, flow cytometry fluorescence, 3 h; at 33 µM (top of the series). In general terms: A flow cytometer gives signals particle by particle.
As for `O=C(Oc1ccnc2cc(Cl)ccc12)N1CCOCC1`, the GFP fluorescence, lower = active (kMESF (background-subtracted)) was 37.6 (inactive).

On to `COc1cccc(/C=C/C(=O)c2c(O)cc(C)oc2=O)c1O`, for which the GFP fluorescence, lower = active (kMESF (background-subtracted)) is 40.4 (inactive).

Consider `Cc1ccc(C(c2cc(Cl)c3cccnc3c2O)N2CCN(C)CC2)cc1` (centres undefined), for which the GFP fluorescence, lower = active (kMESF (background-subtracted)) was 29.8 (inactive).

Turning to `Cc1ccc(C(=O)NNC(=S)NC(=O)COc2ccccc2)cc1`, the GFP fluorescence, lower = active (kMESF (background-subtracted)) is 41.1 (inactive).

Take `COc1cc(/C=C2\C(=O)ON=C2c2ccccc2)cc(Br)c1O`: the GFP fluorescence, lower = active (kMESF (background-subtracted)) is 37.3 (inactive).

`CC[C@H](C)/C=C(C)/C=C/C1=CC2=C(Cl)C(=O)[C@@](C)(OC(C)=O)C(=O)C2=CO1`: the GFP fluorescence, lower = active (kMESF (background-subtracted)) is 4.51 (inactive).

`CCOc1ccccc1/C=c1\sc2ncnn2c1=O`: the GFP fluorescence, lower = active (kMESF (background-subtracted)) is 30.1 (inactive).

On to `O=C(/C=C/c1ccnc2ccccc12)c1cccs1`, for which the GFP fluorescence, lower = active (kMESF (background-subtracted)) was 38 (inactive).

As to `CN(C)C(=O)Oc1ccnc2cc(Cl)ccc12`, the GFP fluorescence, lower = active (kMESF (background-subtracted)) was 38.2 (inactive).

For the molecule `Cc1ccc(/C=C2\C(=O)NC(=S)N(c3ccc(F)cc3)C2=O)s1`, the GFP fluorescence, lower = active (kMESF (background-subtracted)) was 38 (inactive).

On to `Cc1cccnc1Nc1nc(-c2ccccn2)cs1`, for which the GFP fluorescence, lower = active (kMESF (background-subtracted)) was 33.3 (inactive).

As for `COc1cc(/C=C/c2ccc3c(Br)cc(Br)c(O)c3n2)ccc1O`, the GFP fluorescence, lower = active (kMESF (background-subtracted)) is 29.4 (inactive).

As for `O=C1ON=C(c2ccccc2)/C1=C\c1ccco1`, the GFP fluorescence, lower = active (kMESF (background-subtracted)) is 28.9 (inactive).

On to `CC1(c2ccccc2)ON(c2ccccc2C(F)(F)F)C1=O` (centres undefined), for which the GFP fluorescence, lower = active (kMESF (background-subtracted)) is 40 (inactive).

As to `O=C1C(Cl)=C(Nc2ccccc2O)C(=O)N1c1ccccc1`, the GFP fluorescence, lower = active (kMESF (background-subtracted)) is 43.6 (inactive).

Take `CC1(C)OC(c2ccccc2)=C/C(=C/C=C2C(=O)NC(=S)NC2=O)O1`: the GFP fluorescence, lower = active (kMESF (background-subtracted)) is 37 (inactive).

Regarding `CCOc1ccc(C(C)=O)cc1N1C(=O)C2C3C=CC(O3)C2C1=O` (centres undefined), the GFP fluorescence, lower = active (kMESF (background-subtracted)) was 42.4 (inactive).

On to `O=c1oc2cc(Oc3c([N+](=O)[O-])cc(C(F)(F)F)cc3[N+](=O)[O-])ccc2c2c1CCCC2`, for which the GFP fluorescence, lower = active (kMESF (background-subtracted)) is 36.1 (inactive).

Turning to `COc1cc(N=c2ssnc2Cl)cc(OC)c1`, the GFP fluorescence, lower = active (kMESF (background-subtracted)) is 31.6 (inactive).

In the case of `CS(=O)(=O)c1nc(-c2ccccc2)cc(C(F)(F)F)n1`, the GFP fluorescence, lower = active (kMESF (background-subtracted)) was 31.9 (inactive).

For `CCN(CC(=O)NC(C)(C)C)C(=O)COc1c(Cl)cc(Cl)c2ccc(C)nc12`, the GFP fluorescence, lower = active (kMESF (background-subtracted)) is 50.3 (inactive).

With `Oc1c(CN2CCCCC2)cc(Br)c2cccnc12`, the GFP fluorescence, lower = active (kMESF (background-subtracted)) is 43.4 (inactive).

Regarding `Cc1nn(C)c(C)c1N1C(=O)c2cccc3c(Br)ccc(c23)C1=O`, the GFP fluorescence, lower = active (kMESF (background-subtracted)) was 40.3 (inactive).

On to `CCCCCCCCC/C(=N\O)c1ccccn1`, for which the GFP fluorescence, lower = active (kMESF (background-subtracted)) was 38.8 (inactive).

As to `O=C1c2cccc3c([N+](=O)[O-])ccc(c23)C(=O)N1CCc1ccccn1`, the GFP fluorescence, lower = active (kMESF (background-subtracted)) is 47.1 (inactive).

Consider `COc1ccc(N=Cc2nc(-c3ccccc3)oc2OC(C)=O)cc1`, for which the GFP fluorescence, lower = active (kMESF (background-subtracted)) was 40.2 (inactive).

For the molecule `COc1cccc(/C=C2\SC(=S)N(CCCC(=O)Nc3ccc(C(=O)O)cc3)C2=O)c1`, the GFP fluorescence, lower = active (kMESF (background-subtracted)) was 38.2 (inactive).

For `CC(C)[C@@]1(c2ccc(Cl)cc2)ON(c2ccccc2C(F)(F)F)C1=O`, the GFP fluorescence, lower = active (kMESF (background-subtracted)) is 39.1 (inactive).

Regarding `O=C(c1ccc([N+](=O)[O-])o1)N1CCN(c2nc3c(F)cc(F)cc3s2)CC1`, the GFP fluorescence, lower = active (kMESF (background-subtracted)) was 31.7 (inactive).

On to `N=C1S/C(=C\c2ccco2)C(=O)N1c1nccs1`, for which the GFP fluorescence, lower = active (kMESF (background-subtracted)) was 47.2 (inactive).

Take `NC(=O)COc1ccc(C(=O)/C=C2/C(=O)Nc3ccccc32)cc1`: the GFP fluorescence, lower = active (kMESF (background-subtracted)) is 40.3 (inactive).

As for `CCCCCn1c(=O)c(C(=O)Nc2nc3ccccc3[nH]2)c(O)c2ccccc21`, the GFP fluorescence, lower = active (kMESF (background-subtracted)) is 43.6 (inactive).

`O=C(/C=C/c1ccccc1[N+](=O)[O-])c1ccccc1Br`: the GFP fluorescence, lower = active (kMESF (background-subtracted)) was 44.1 (inactive).

`Cc1cc(NC(c2ccc(Cl)cc2)c2ccc3cccnc3c2O)no1` (centres undefined): the GFP fluorescence, lower = active (kMESF (background-subtracted)) is 39.3 (inactive).

`COC(=O)CCCC1=CC2=CC(=O)C(C)(OC(=O)CCc3ccccc3)C(=O)C2=CO1` (centres undefined): the GFP fluorescence, lower = active (kMESF (background-subtracted)) was 42.8 (inactive).

Consider `Cc1cc(O)c(C(=O)/C=C/c2c(F)c(F)c(F)c(F)c2F)c(=O)o1`, for which the GFP fluorescence, lower = active (kMESF (background-subtracted)) is 26.6 (inactive).

For the molecule `COc1cc(/C=C2\C(=O)N(CCC#N)N=C2C)c(Br)cc1OC(C)C`, the GFP fluorescence, lower = active (kMESF (background-subtracted)) is 39.9 (inactive).

Turning to `O=C1C=CC(=O)N1N(c1ccccc1)c1ccccc1`, the GFP fluorescence, lower = active (kMESF (background-subtracted)) was 23.9 (inactive).

With `Cc1cccc(/C=C/C(=O)c2ccc([N+](=O)[O-])o2)c1`, the GFP fluorescence, lower = active (kMESF (background-subtracted)) was 16.1 (inactive).

Turning to `CCOc1cc(C=C2C(=O)c3ccccc3C2=O)ccc1OCC(=O)Nc1ccc(C)cc1`, the GFP fluorescence, lower = active (kMESF (background-subtracted)) was 43.8 (inactive).

`O=[N+]([O-])c1ccc(-c2cn3nc(-c4ccccc4)c(-c4ccccc4)nc3n2)cc1`: the GFP fluorescence, lower = active (kMESF (background-subtracted)) was 48.8 (inactive).

In the case of `COc1ccc(CCNC2=C(Cl)C(=O)N(CCc3ccc(OC)c(OC)c3)C2=O)cc1OC`, the GFP fluorescence, lower = active (kMESF (background-subtracted)) is 42.6 (inactive).

Take `Cc1ccc(/C=N/Nc2ncc(Cl)cc2Cl)s1`: the GFP fluorescence, lower = active (kMESF (background-subtracted)) is 43.1 (inactive).

With `O=C1N(c2ccccc2C(F)(F)F)O[C@@]1(c1ccccc1)C1CCCC1`, the GFP fluorescence, lower = active (kMESF (background-subtracted)) was 46 (inactive).

For `CC(C)C[C@]1(c2ccccc2)ON(c2ccccc2C(F)(F)F)C1=O`, the GFP fluorescence, lower = active (kMESF (background-subtracted)) was 36.6 (inactive).

As to `Cc1cc(C)c(C)c(S(=O)(=O)ON2C(=O)c3ccccc3C2=O)c1C`, the GFP fluorescence, lower = active (kMESF (background-subtracted)) is 49.1 (inactive).

As to `CC(C)C(=O)NC(c1cccs1)c1cc([N+](=O)[O-])c2cccnc2c1O` (centres undefined), the GFP fluorescence, lower = active (kMESF (background-subtracted)) is 31.9 (inactive).

As for `Cc1cccc2c1NC(=O)/C2=C\C(=O)c1cccs1`, the GFP fluorescence, lower = active (kMESF (background-subtracted)) is 34.4 (inactive).

For the molecule `N#Cc1c2ccc([N+](=O)[O-])cc2[n+]([O-])n1-c1ccccc1`, the GFP fluorescence, lower = active (kMESF (background-subtracted)) is 51.8 (inactive).

As to `CC(C)CC(=O)NC(=S)Nc1nc(-c2ccccc2)cs1`, the GFP fluorescence, lower = active (kMESF (background-subtracted)) is 38.4 (inactive).

For the molecule `Cc1ccc(C(=O)NNC(=S)NC(=O)c2ccco2)cc1`, the GFP fluorescence, lower = active (kMESF (background-subtracted)) is 49.1 (inactive).

Turning to `CC(=O)CSc1ncnc2c1cnn2-c1ccccc1`, the GFP fluorescence, lower = active (kMESF (background-subtracted)) is 37.7 (inactive).

With `CN(C)c1ccc(/C=C/c2cc[n+](C)cc2)cc1`, the GFP fluorescence, lower = active (kMESF (background-subtracted)) is 44.5 (inactive).

For the molecule `CCOc1ccc(NC2=C(Cl)C(=O)N(Cc3ccccc3)C2=O)cc1`, the GFP fluorescence, lower = active (kMESF (background-subtracted)) was 44.3 (inactive).

Consider `Cc1ccc(/C=C/C(=O)c2ccc([N+](=O)[O-])o2)cc1`, for which the GFP fluorescence, lower = active (kMESF (background-subtracted)) was 46.1 (inactive).

Regarding `CCCc1cc(N2CCN(c3ccccn3)CC2)n2nc(C)c(-c3ccccc3)c2n1`, the GFP fluorescence, lower = active (kMESF (background-subtracted)) was 38.1 (inactive).

Take `COC(=O)c1cc(N2C(=O)C3C(C2=O)C2(C)C=CC3(C)O2)ccc1Cl` (centres undefined): the GFP fluorescence, lower = active (kMESF (background-subtracted)) was 28.8 (inactive).

As to `COc1ccc([C@@]2(C(C)C)ON(c3ccccc3C(F)(F)F)C2=O)cc1`, the GFP fluorescence, lower = active (kMESF (background-subtracted)) is 45.9 (inactive).

On to `COc1cccc(N=Nc2ccc(O)c3ncccc23)c1`, for which the GFP fluorescence, lower = active (kMESF (background-subtracted)) was 50.7 (inactive).

On to `O=C1C(Cl)=C(Nc2ccccc2O)C(=O)N1CCc1ccccc1`, for which the GFP fluorescence, lower = active (kMESF (background-subtracted)) is 42.1 (inactive).

On to `CN(O)/C=c1/ccc2c(n1)C(=O)C=CC=2`, for which the GFP fluorescence, lower = active (kMESF (background-subtracted)) is 39.2 (inactive).

As for `COc1cc(/C=C2/C(=O)ON=C2c2ccccc2)ccc1O`, the GFP fluorescence, lower = active (kMESF (background-subtracted)) was 35.6 (inactive).

Consider `O=C(O)C1Sc2[nH]c(=O)sc2C2c3cc(Br)ccc3OC(=O)C12` (centres undefined), for which the GFP fluorescence, lower = active (kMESF (background-subtracted)) is 37.8 (inactive).

For the molecule `COc1cc(SSc2cc(OC)cc([N+](=O)[O-])c2N)c(N)c([N+](=O)[O-])c1`, the GFP fluorescence, lower = active (kMESF (background-subtracted)) was 32.6 (inactive).

For the molecule `CCCN1CCc2c(sc(NC(=S)NC(=O)c3ccccc3)c2C#N)C1`, the GFP fluorescence, lower = active (kMESF (background-subtracted)) was 47.6 (inactive).

With `N/C(=N\OC(=O)c1ccc(Cl)cc1Cl)c1ccccc1`, the GFP fluorescence, lower = active (kMESF (background-subtracted)) is 39.4 (inactive).

Consider `Cc1c(C(=O)Nc2nc(-c3ccccn3)cs2)oc2ccccc12`, for which the GFP fluorescence, lower = active (kMESF (background-subtracted)) is 33.3 (inactive).

With `Cc1[nH]n(-c2ncc(-c3ccccc3)s2)c(=O)c1C(c1ccc(Cl)cc1)C(C#N)C#N` (centres undefined), the GFP fluorescence, lower = active (kMESF (background-subtracted)) is 42 (inactive).

On to `COc1ccc(N=Nc2ccc(O)c3ncccc23)cc1`, for which the GFP fluorescence, lower = active (kMESF (background-subtracted)) is 37.9 (inactive).

Turning to `O=C1ON=C(c2ccccc2)/C1=C/c1ccco1`, the GFP fluorescence, lower = active (kMESF (background-subtracted)) is 28.4 (inactive).

As for `Cc1ccc(S(=O)(=O)N2CCCC2C(=O)NCc2ccncc2)cc1` (centres undefined), the GFP fluorescence, lower = active (kMESF (background-subtracted)) was 39.8 (inactive).

As to `O=[N+]([O-])c1cc(F)c2cccnc2c1O`, the GFP fluorescence, lower = active (kMESF (background-subtracted)) was 25.6 (inactive).

On to `C=CCOc1ccccc1C(=O)/C=C1/C(=O)Nc2ccccc21`, for which the GFP fluorescence, lower = active (kMESF (background-subtracted)) is 41.5 (inactive).

As for `O=C(OCC(=O)N1CCN(C(=O)c2ccco2)CC1)c1cc(-c2ccc(Cl)c(Cl)c2Cl)nc2ccccc12`, the GFP fluorescence, lower = active (kMESF (background-subtracted)) was 31.8 (inactive).

These data come from PubChem BioAssay AID2740 (NMMLSC, 2010).
